Data published in publication PMC3781034, “A Small-Animal Pharmacokinetic/Pharmacodynamic PET Study of Central Serotonin 1A Receptor Occupancy by a Potential Therapeutic Agent for Overactive Bladder” (PLoS ONE, 2013).
Where two headings read alike, the source gives them in different places.

Assays:
[1] = Protein binding of E2110 in rat plasma (equilibrium dialysis); format: in vitro ADME
Description: The in vitro unbound fraction of […] in male SD rat plasma was quantified by equilibrium dialysis. One mL of the […] spiked sample (100, 1000 and 10000 ng/mL) and phosphate buffered saline (PBS) were applied to one and the other chambers of a dialysis cell, respectively. The cartridge was incubated in a water bath for 24 hr at 37°C. After incubation, aliquots were sampled from both chambers and submitted to determination of the concentration of […] in each matrix by liquid chromatography-tandem mass spectrometry. Unbound fractions for each compound were calculated as the ratio of […] concentration from the PBS side to that from the plasma side of the dialysis apparatus. Concentrations of […] were determined in plasma or PBS by liquid chromatography - tandem mass spectrometry. Samples (5 μL) were injected into an L-column ODS (35 × 2.1 mm; 5 μM, Chemical Evaluation and Research Institute, Tokyo, Japan) with a flow rate of 0.6 mL/min. We used 0.1% formic acid in water and acetonitrile as mobile phase A and B, respectively. […] […] was monitored using mass transitions of 490.4/459.2. Tamsulosin was used as an internal standard, and was monitored using a mass transition of 409.3/200.0. The lower limit of quantification of […] in plasma was 0.5 ng/mL.

PK study in rats (oral) = format: in vivo; settings: Sprague-Dawley, rat, plasma, 1 mg/kg oral; for AUC(0-t): read-out: AUC0-8hr
Description: E2110 was administered orally to male and female SD rats, (4 animals/sex) at a dose of 1 mg/kg. Blood samples were collected from the jugular veins by heparinized syringes at 0.25, 0.5, 1, 2, 4, 6, and 8 hours after dosing.
Concentrations of E2110 were determined in plasma or PBS by liquid chromatography - tandem mass spectrometry. Samples (5 µL) were injected into an L-column ODS (35 × 2.1 mm; 5 µM, Chemical Evaluation and Research Institute, Tokyo, Japan) with a flow rate of 0.6 mL/min. We used 0.1% formic acid in water and acetonitrile as mobile phase A and B, respectively. The gradient elution started with a gradient from 0% to 100% mobile phase B for 2 min, then 1 min of 100% B, followed by a gradient of 100% to 0% for 0.01 min at the end, at a flow rate of 0.6 ml/min. The mass spectrometer (Quattro Ultima-Pt; Micromass, Waters Ltd., Manchester, UK) was operated in a positive ion multiple reaction monitoring mode. E2110 was monitored using mass transitions of 490.4/459.2. Tamsulosin was used as an internal standard, and was monitored using a mass transition of 409.3/200.0. The lower limit of quantification of E2110 in plasma was 0.5 ng/mL.

P-glycoprotein = assay: Brain-to-plasma ratio in Mdr1a/1b-knockout vs wild-type mice; format: in vivo; settings: rodents, BBB drug transporter; data not shown

Structure (SMILES): CNC(=O)c1ccc2ccn(C3CCN(CCc4c(OC)ccc5c4OC(C)(C)CC5=O)CC3)c2c1.O=C(O)/C=C/C(=O)O [E2110, 1-{1-[2-(7-Methoxy-2,2-dimethyl-4-oxochroman-8-yl)ethyl]piperidine-4-yl}-N-methyl-1H-indole-6-carboxamide fumarate]
- concentration dependence of binding to plasma proteins ([1]; at 0.1, 1 µM): not dependent on its concentration
- average percentage of protein-unbound E2110 in plasma ([1]; male SD rat plasma, equilibrium dialysis 24 hr 37°C): 6%
- Cmax (PK study in rats (oral); Female SD): 126 ng/mL
- Tmax (PK study in rats (oral); Female SD): 1 h
- half-life (PK study in rats (oral); Female SD): 2.6 h
- AUC(0-t) (PK study in rats (oral); Female SD): 488 ng·h/mL
- Cmax (PK study in rats (oral); Male SD): 48.1 ng/mL
- Tmax (PK study in rats (oral); Male SD): 0.5 h
- half-life (PK study in rats (oral); Male SD): 1.5 h
- AUC(0-t) (PK study in rats (oral); Male SD): 71.8 ng·h/mL
- P-glycoprotein substrate status (P-glycoprotein): substrate for the BBB drug transporter P-glycoprotein
